Consider six compounds from BindingDB's records for doi:10.1038/nchembio.2208 (Novartis Pharma, 2016).

In general, IC50 refers to the concentration that gives 50% inhibition. Low values mean greater potency, high ones weaker potency.

Structures are written as SMILES.

Assay [1] concerns the target T1, Kallikrein-7 [37-253,Y180R] (Homo sapiens, UniProt P49862, Y180R).
T1 construct: 37-253
Briefly: Human KLK7 Fluorescence-Lifetime Assay. The settings on record: pH 5.6; 25 °C. The procedure: The enzyme reaction was initiated by addition of the substrate Ac-[…]PT14)-Glu-NH2 (0.8 μM; Biosyntan, Berlin, Germany, product BS-#7599). Fluorescence-lifetime measurements were conducted on an Ultra Evolution fluorescence lifetime reader (TECAN, M nnedorf, Switzerland). The excitation light source was a semiconductor laser at 405 nm, producing picosecond light pulses with a selected repetition frequency of 10 MHz. The emission was collected through a 450 nm bandpass filter with 25 nm bandwidth. The measurement time per well was set to 1 s, yielding approximately 1,000 counts in the peak channel. The parameters used as assay readout were the mono-exponential lifetimes.

The target in assay [2] is T2, Complement factor B [470-764] (UniProt P00751).
T2 construct: 470-764
T2 sequence (P00751 470-764): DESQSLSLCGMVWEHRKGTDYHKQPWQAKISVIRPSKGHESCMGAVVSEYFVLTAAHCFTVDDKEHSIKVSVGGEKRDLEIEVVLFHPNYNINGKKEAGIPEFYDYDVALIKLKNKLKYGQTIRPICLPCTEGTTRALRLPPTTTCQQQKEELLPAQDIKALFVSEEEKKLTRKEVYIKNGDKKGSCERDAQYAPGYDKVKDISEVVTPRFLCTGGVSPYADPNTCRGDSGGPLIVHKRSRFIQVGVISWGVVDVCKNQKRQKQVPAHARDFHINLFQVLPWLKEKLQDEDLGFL
Briefly: Human FB Proteolysis Assay (ELISA C3a). To be noted: pH 7.4; 4 °C. The procedure:
The enzyme reaction was started by addition of C3 diluted in the assay buffer to a final concentration of 1 μM.

In assay [3] the target is T3, Complement factor D [24-253] (Mus musculus, UniProt P03953).
T3 construct: 24-253
T3 sequence (P03953 whole entry): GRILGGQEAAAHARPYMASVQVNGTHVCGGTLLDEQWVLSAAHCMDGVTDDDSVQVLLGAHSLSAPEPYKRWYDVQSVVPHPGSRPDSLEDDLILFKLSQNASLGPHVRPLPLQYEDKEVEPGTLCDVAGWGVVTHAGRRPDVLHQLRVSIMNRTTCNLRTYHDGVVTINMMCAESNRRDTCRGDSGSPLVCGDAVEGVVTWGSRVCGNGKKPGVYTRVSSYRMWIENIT
Briefly: Complement FD Thioesterolysis Assay. The settings on record: pH 7.5; 25 °C.

The target of assay [4] is T4, Complement factor D [24-253] (Homo sapiens, UniProt P00746).
T4 construct: 24-253
T4 sequence (P00746 24-253): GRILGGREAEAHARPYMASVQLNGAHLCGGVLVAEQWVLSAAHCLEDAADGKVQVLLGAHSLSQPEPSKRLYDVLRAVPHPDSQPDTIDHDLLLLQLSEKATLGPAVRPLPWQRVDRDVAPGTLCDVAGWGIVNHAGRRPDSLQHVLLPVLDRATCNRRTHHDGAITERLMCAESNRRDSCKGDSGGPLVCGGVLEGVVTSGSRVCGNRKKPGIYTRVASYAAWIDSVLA
Briefly: Complement FD Thioesterolysis Assay. To be noted: pH 7.5; 25 °C.

T1 sequence (P49862 37-253 Y180R): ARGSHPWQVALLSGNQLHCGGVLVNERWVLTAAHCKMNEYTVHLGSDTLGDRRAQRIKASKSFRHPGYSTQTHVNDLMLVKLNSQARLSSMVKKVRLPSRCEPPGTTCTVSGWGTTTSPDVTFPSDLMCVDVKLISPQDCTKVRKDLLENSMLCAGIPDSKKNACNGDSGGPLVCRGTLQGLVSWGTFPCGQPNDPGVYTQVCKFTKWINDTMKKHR

The compound `NC(=O)c1nn(CC(=O)N2[C@@H]3C[C@@H]3C[C@H]2C(=O)Nc2cccc(Br)n2)c2ccccc12` [1-(2-((1R,3S,5R)-3-((6-Bromopyridin-2-yl)carbamoyl)-2-azabicyclo[3.1.0]hexan-2-yl)-2-oxoethyl)-1H-indazole-3-carboxamide (7)] displayed an IC50 in assay [1] of over 100 µM.
`C[C@@H](NC(=O)[C@@H]1C[C@H]2C[C@H]2N1C(=O)Cn1nc(C(N)=O)c2ccncc21)c1cccc(Cl)c1F` [1-(2-((1R,3S,5R)-3-(((R)-1-(3-Chloro-2-fluorophenyl)ethyl)carbamoyl)-2-azabicyclo[3.1.0]hexan-2-yl)-2-oxoethyl)-1H-pyrazolo[3,4-c]pyridine-3-carboxamide (6)]: the IC50 in assay [2] is over 100 µM; in assay [3], 0.86 µM; in assay [1], over 100 µM.
In assay [2], `NC(=O)c1cc2cc(OCc3cccc(C(=O)O)c3)ccc2[nH]1` [3-(((2-Carbamoyl-1H-indol-5-yl)oxy)methyl)benzoic acid (4)] had an IC50 of over 100 µM.
On to `COc1ccc(CCNC(=O)[C@@H]2CCCN2C(=O)NCc2cccc3ccccc23)cc1` [(S)-N2-(4-methoxyphenethyl)-N1-(naphthalen-1-ylmethyl)pyrrolidine-1,2-dicarboxamide (1)], for which the IC50 in assay [4] is over 30 µM; in assay [1] it was 0.7 µM.
Consider `Cn1cc(NC(=O)N2CCC[C@H]2C(=O)NC(c2ccccc2)c2ccccc2)c2ccccc21` [(S)-N2-benzhydryl-N1-(1-methyl-1H-indol-3-yl)pyrrolidine-1,2-dicarboxamide (5)], for which the results for the IC50 in assay [2], in assay [4] and in assay [1] were over 100 µM, 5.8 µM and over 100 µM, respectively.
As to `COC(=O)c1ccccc1CNC(=O)N1CCC[C@H]1C(=O)Nc1cccc(OC(F)(F)F)c1` [Methyl (S)-2-((2-((3-(trifluoromethoxy)phenyl)carbamoyl)pyrrolidine-1-carboxamido)-methyl)benzoate (2)], the results for the IC50 in assay [2] and in assay [1] were over 100 µM and 8.7 µM, respectively.
